Assay results as given in patent US5801180A, “Quinazoline derivatives” (priority 1991, dated 1998).

biological target: T1, cGMP-PDE prepared from the swine aeorta (Sus scrofa, UniProt A0A287B475); assay: Enzyme inhibiting action with the use of cGMP-PDE prepared from the swine aorta; assay type: biochemical; conditions: CaM-independent cGMP-PDE, 1 mM EGTA, 1 μM cGMP substrate, DMSO 4% or below
T1 construct: The swine aeorta was sliced; from tissue; host or cells: swine aorta, 100000×g supernatant, DEAE-Toyopearl 650S fraction
Method: Enzyme inhibiting action with the use of cGMP-PDE prepared from the swine aeorta
The enzymatic activity of the cGMP-PDE prepared from the swine aeorta was determined according to the method of Thompson et al. ^(1). The enzymatic activity thereof was determined in the presence of 1 mM EGTA by the use of 1 μM cGMP as a substrate. The compound of the present invention was dissolved in DMSO, added to the reaction liquid and examined for the inhibitory activity. The final concentration of DMSO in the reaction liquid was adjusted to 4% or below. (1) Thompson, W. J. and Strada, S. J., Cyclic Nucleotide Phosphodiesterase (PDE), in Methods of Enzymatic Analysis, vol 4, p.127-234, 1984.
The swine aeorta was sliced, followed by the addition of 10 times by volume as much Buffer A (20 mM Tris/HCl, 2 mM Mg acetate, 1 mM Dithiothreitol, 5 mM EDTA, 1400 TIU/liter aprotinin, 10 mg/liter leupeptin, 1 mM benzamidine, 0.2 mM PMSF, pH 7.5). The obtained mixture was homogenized and the homogenate was centrifuged at 100000×g for one hour. The obtained supernatant was supplied a DEAE-Toyopearl 650S (Tosoh, Tokyo, Japan) column. After the column was washed with Buffer B (50 mM Tris/HCl, 0.1 mM EGTA, 2 mM Mg acetate, 1 mM Dithiothreitol, 0.2 mM PMSF, pH 7.5), gradient elution with 0.05 to 0.4M NaCl was conducted. Thus, CaM-independent cGMP-PDE fractions were obtained.

Compared with `CN(CCCC(=O)O)c1nc(NCc2ccc3c(c2)OCO3)c2cc(C#N)ccc2n1` [Example 230, 2-[N-(3-Carboxypropyl)-N-methylamino]-4-(3,4-methylenedioxybenzyl)amino-6-cyanoquinazoline], `N#Cc1ccc2nc(OCCCC(=O)O)nc(NCc3ccc4c(c3)OCO4)c2c1` [Example 179, 2-(3-Carboxypropyl)oxy-4-(3,4-methylenedioxybenzyl)amino-6-cyanoquinazoline] is 2.9-fold lower in IC50: 5.8 nM for the first, 2 nM for the second. The second is the more potent here.

Compared with `COc1ccc(CNc2cc(N3CCC(C(=O)O)CC3)nc3ccc(C#N)cc23)cc1Cl` [Example 260, 2-(4-Carboxypiperidino)-4-(3-chloro-4-methoxybenzyl)amino-6-cyanoquinoline], `O=C(O)C1CCN(c2cc(NCc3ccc4c(c3)OCO4)c3cc(Cl)ccc3n2)CC1` [Example 255, 2-(4-Carboxypiperidino)-4-(3,4-methylenedioxybenzyl)amino-6chloroquinoline] is 200-fold higher in IC50: 0.16 nM for the first, 32 nM for the second. The first is the more potent here.

First: N#Cc1ccc2nc(N3CCC(C(=O)O)CC3)nc(NCc3ccc4nc[nH]c4c3)c2c1 [Example 244, 2-(4-Carboxypiperidino)-4-(benzimidazol-5-yl)methylamino-6-cyanoquinazoline]
Second: O=C(O)C1CCN(c2nc(NCc3ccc4[nH]cnc4c3)c3cc(Cl)ccc3n2)CC1 [Example 236, 2-(4-Carboxypiperidino)-4-(benzimidazol-5-yl)methylamino-6-chloroquinazoline]
The IC50 of the first is 1.5-fold higher: 9 nM for the first, 6 nM for the second.

Going from `COc1cc2c(NCc3ccc4c(c3)OCO4)nc(C)nc2c(OC)c1OC` [Example 81, 2-Methyl-4-(3,4-methylenedioxybenzyl)amino-6,7,8-trimethoxyquinazoline] to `COc1cc2c(NCc3ccc4c(c3)OCO4)nc(Cl)nc2c(OC)c1OC` [Example 95, 2-Chloro-4-(3,4-methylenedioxybenzyl)amino-6,7,8-trimethoxyquinazoline], the IC50 falls from 440 nM to 200 nM (2.2-fold). The second is the more potent here.

Going from `COc1cc2c(NCc3ccc4c(c3)OCO4)nc(NCCO)nc2c(OC)c1OC` [Example 187, 2-(2-Hydroxyethyl)amino-4-(3,4-methylenedioxybenzyl)amino-6,7,8-trimethoxyquinazoline] to `COc1cc2nc(Cl)nc(NCc3ccc4c(c3)OCO4)c2cc1OC` [Example 97], the IC50 rises from 120 nM to 790 nM (6.6-fold).

`CCOC(=O)CN(Cc1ccc2c(c1)OCO2)c1ncnc2c(OC)c(OC)c(OC)cc12` [Example 41, 4-[N-(Ethoxycarbonylmethyl)-(3,4-methylenedioxybenzyl)amino]-6,7,8-trimethoxyquinazoline] and `COc1cc2c(NC(C)c3ccc4c(c3)OCO4)ncnc2c(OC)c1OC` (stereo not drawn) [Example 38, 4-(α-Methyl-3,4-methylenedioxybenzyl)amino-6,7,8-trimethoxyquinazolin] are within 1.5-fold of each other in IC50: 350 nM for the first, 420 nM for the second.

First: O=[N+]([O-])c1cc(CNc2ncnc3ccc(Cl)cc23)ccc1Cl [Example 55]
Second: O=CNc1cc(CNc2ncnc3ccc(Cl)cc23)ccc1Cl [Example 152, 4-(4-Chloro-3-formamidobenzyl)amino-6-chloroquinazoline]
The IC50 of the first is 3.7-fold lower: 30 nM for the first, 110 nM for the second. The first is the more potent here.

Going from `OCc1ccc2ncnc(NCc3ccc4c(c3)OCO4)c2c1` [Example 136] to `CCOC(=O)c1ccc2ncnc(NCc3ccc4c(c3)OCO4)c2c1` [Example 68, 4-(3,4-Methylenedioxybenzyl)amino-6-ethoxycarbonylquinazoline], the IC50 falls from 930 nM to 620 nM (1.5-fold). The second is the more potent here.

First: COCCOc1nc(NCc2ccc3nc[nH]c3c2)c2cc(C#N)ccc2n1 [Example 171, 2-(2-Methoxyethoxy)-4-(benzimidazol-5-yl)methylamino-6-cyanoquinazoline]
Second: COc1ccc2ncnc(NCc3ccc4nc[nH]c4c3)c2c1 [Example 45, 4-(Benzimidazol-5-ylmethyl)amino-6-methoxyquinazoline]
The IC50 of the first is 1000-fold lower: 0.4 nM for the first, 410 nM for the second. The first is the more potent here.

Going from `COc1ccc2nc(OC)nc(NCc3ccc4c(c3)OCO4)c2c1` [Example 89, 2,6-Dimethoxy-4-(3,4-methylenedioxybenzyl)aminoquinazoline] to `COc1nc(NCc2ccc3c(c2)OCO3)c2cc(Cl)ccc2n1` [Example 165, 2-Methoxy-4-(3,4-methylenediokybenzyl)amino-6-chloroquinazoline], the IC50 falls from 160 nM to 16 nM (10-fold). The second is the more potent here.

First: COc1ccc(CNc2nc(N3CCOCC3)nc3ccc(C#N)cc23)cc1Cl [Example 183, 2-Morpholino-4-(3-chloro-4-methoxybenzyl)amino-6-cyanoquinazoline]
Second: N#Cc1ccc2nc(N3CCOCC3)nc(NCc3ccc4c(c3)OCO4)c2c1 [Example 181, 2-Morpholino-4-(3,4-methylenedioxybenzyl)amino-6-cyanoquinazoline]
The IC50 of the first is 12-fold lower: 0.4 nM for the first, 5 nM for the second. The first is the more potent here.

First: COc1nc(NCc2ccc3c(c2)OCO3)c2cc(C#N)ccc2n1 [Example 166, 2-Methoxy-4-(3,4-methylenedioxybenzyl)amino-6-cyanoquinazoline]
Second: N#Cc1ccc2nc(N)nc(NCc3ccc4c(c3)OCO4)c2c1 [Example 201, 2-Amino-4-(3,4-methylenedioxybenzyl)amino-6-cyanoquinazoline]
The IC50 of the first is 1.9-fold lower: 26 nM for the first, 49 nM for the second. The first is the more potent here.

Going from `O=C(O)C1CCN(c2nc(NCc3ccc4c(c3)OCO4)c3cc(Cl)ccc3n2)CC1` [Example 222, 2-(4-Carboxypiperidino)-4-(3,4-methylenedioxybenzyl)amino-6-chloroquinazoline] to `O=C(O)CNc1nc(NCc2ccc3c(c2)OCO3)c2cc(Cl)ccc2n1` [Example 237, 2-(Carboxymethyl)amino-4-(3,4-methylenedioxybenzyl)amino-6-chloroquinazoline], the IC50 rises from 6.5 nM to 14 nM (2.2-fold).

Going from `COCCCCOc1nc(NCc2ccc3c(c2)OCO3)c2cc(Cl)ccc2n1` [Example 175, 2-(4-Methoxybutoxy)-4-(3,4-methylenedioxybenzyl)amino-6-chloroquinazoline] to `OCCCCCCOc1nc(NCc2ccc3c(c2)OCO3)c2cc(Cl)ccc2n1` [Example 176], the IC50 falls from 6 nM to 3 nM (2-fold).

First: COc1ccc(CNc2nc(N(C)CCCC(=O)O)nc3ccc(C#N)cc23)cc1Cl [Example 243, 2-[N-(3-Carboxypropyl)-N-methylamino]-4-(3-chloro-4-methoxybenzyl)amino-6-cyanoquinazoline]
Second: COc1ccc2nc(Cl)nc(NCc3ccc4c(c3)OCO4)c2c1 [Example 98, 2-Chloro-4-(3,4-methylenedioxybenzyl)amino-6-methoxyquinazoline]
The IC50 of the first is 410-fold lower: 0.15 nM for the first, 62 nM for the second. The first is the more potent here.

`N#Cc1ccc2nc(-n3ccnc3)nc(NCc3ccc4c(c3)OCO4)c2c1` [Example 193, 2-(Imidazol-1-yl)-4-(3,4-methylenedioxybenzyl)amino-6-cyanoquinazoline] and `C/C(=C\c1nc(NCc2ccc3c(c2)OCO3)c2cc(Cl)ccc2n1)C(=O)O` [Example 120, (E)-2-(2-Carboxy-1-propenyl)-4-(3,4-methylenedioxybenzyl)amino-6-chloroquinazoline] are within 1.5-fold of each other in IC50: 0.8 nM for the first, 1 nM for the second.

First: CCOC(=O)CCCNc1nc(NCc2ccc3c(c2)OCO3)c2cc(Cl)ccc2n1 [Example 214, 2-(3-Ethoxycarbonylpropyl)amino-4-(3,4-methylenedioxybenzyl)amino-6-chloroquinazoline]
Second: CCOC(=O)CCCCCNc1nc(NCc2ccc3c(c2)OCO3)c2cc(Cl)ccc2n1 [Example 216, 2-(5-Ethoxycarbonylpentyl)amino-4-(3,4-methylenedioxybenzyl)amino-6-chloroquinazoline]
The IC50 of the first is 1.9-fold lower: 9 nM for the first, 17 nM for the second.

First: COc1cc2ncnc(NCc3ccc4c(c3)OCO4)c2cc1SC [Example 74, 4-(34-Methylenedioxybenzyl)amino-6-methylthio-7-methoxyquinazoline]
Second: COc1cc2ncnc(NCc3ccc4c(c3)OCO4)c2cc1NC(C)=O [Example 73, 4-(3,4-Methylenedioxybenzyl)amino-6-acetamido-7-methoxyquinazoline]
The IC50 of the first is 2.7-fold lower: 350 nM for the first, 940 nM for the second.

Going from `CS(=O)(=O)c1ccc2ncnc(NCc3ccc4c(c3)OCO4)c2c1` [Example 138, 4-(3,4-Methylenedioxybenzyl)amino-6-methysulfonylquinazoline] to `CCCCCNc1nc(NCc2ccc3c(c2)OCO3)c2cc(Cl)ccc2n1` [Example 194, 2-Pentylamino-4-(3,4-methylenedioxybenzyl)amino-6-chloroquinazoline], the IC50 falls from 810 nM to 4 nM (200-fold).

Compared with `COc1ccc(CNc2nc(N3CCC(C(=O)O)CC3)nc3c(OC)c(OC)c(OC)cc23)cc1Cl` [Example 232, 2-(4-Carboxypiperidino)-4-(3-chloro-4-methoxybenzyl)amino-6,7,8-trimethoxyquinazoline], `COc1cc2c(NCc3ccc(Cl)c(Cl)c3)ncnc2c(OC)c1OC` [Example 19, 4-(3,4-Dichlorobenzyl)amino-6,7,8-trimethoxyquinazoline] is 8.9-fold higher in IC50: 44 nM for the first, 390 nM for the second. The first is the more potent here.

Going from `CCOC(=O)CON=Cc1nc(NCc2ccc3c(c2)OCO3)c2cc(Cl)ccc2n1` [Example 150, 2-Ethoxycarbonylmethoxyiminomethyl-4-(3,4-methylenedioxybenzyl)amino-6-chloroquinazoline] to `COc1ccc(CNc2ncnc3ccc(Cl)cc23)cc1OC` [Example 59, 4-(3,4-Dimethoxybenzyl)amino-6-chloroquinazoline], the IC50 rises from 7.2 nM to 270 nM (38-fold). The first is the more potent here.
